Results from patent US9957264B2 (Merck Sharp & Dohme Corp., priority 2013, dated 2018).

Legend:
[1] = target: JAK1 (recombinant purified GST-tagged catalytic domain) (Homo sapiens (Human), UniProt P23458); experiment: Jak Biochemical HTRF Assay (JAK1); conditions: [ATP] 31.8 μM
How it was run: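 GST-tagged human catalytic domains of JAK1 or JAK2 phosphorylated a biotinylated peptide substrate for 120 min at room temperature after ATP addition. Reaction quenched with EDTA stop buffer containing streptavidin-Dylight 650 and Eu-pY20 antibody; HTRF 665/615 nm ratio normalized to untreated controls, IC50 from 4-parameter fit.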

[2] = target: JAK2 (recombinant purified GST-tagged catalytic domain) (Homo sapiens (Human), UniProt O60674); experiment: Jak Biochemical HTRF Assay (JAK2); conditions: [ATP] 8.5 μM
Sequence of JAK2 (recombinant purified GST-tagged catalytic domain) (O60674 849-1124): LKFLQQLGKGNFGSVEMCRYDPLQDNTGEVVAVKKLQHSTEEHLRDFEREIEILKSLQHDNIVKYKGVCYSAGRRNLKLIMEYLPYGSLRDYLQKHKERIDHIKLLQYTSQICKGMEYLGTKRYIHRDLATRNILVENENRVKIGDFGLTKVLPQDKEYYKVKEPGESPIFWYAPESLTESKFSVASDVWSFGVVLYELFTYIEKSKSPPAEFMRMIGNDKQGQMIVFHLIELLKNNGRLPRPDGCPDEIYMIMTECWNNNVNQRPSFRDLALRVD

Sequence of JAK1 (recombinant purified GST-tagged catalytic domain) (P23458 875-1153): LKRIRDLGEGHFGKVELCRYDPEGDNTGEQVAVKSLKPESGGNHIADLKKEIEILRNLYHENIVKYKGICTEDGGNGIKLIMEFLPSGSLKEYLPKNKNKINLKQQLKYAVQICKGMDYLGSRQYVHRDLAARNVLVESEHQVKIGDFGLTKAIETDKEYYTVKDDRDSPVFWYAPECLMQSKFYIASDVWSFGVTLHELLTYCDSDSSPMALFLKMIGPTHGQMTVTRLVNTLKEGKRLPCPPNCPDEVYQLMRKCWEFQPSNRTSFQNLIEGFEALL

SMILES	IC50 [1]	IC50 [2]
CN(C)S(=O)(=O)c1ccc(Nc2nn(C3(CC#N)CCN(Cc4cccc(F)c4)CC3)c3cc[nH]c(=O)c23)cc1 [Example 8-8, 4-({1-[4-(cyanomethyl)-1-(3-fluorobenzyl)piperidin-4-yl]-4-oxo-4,5-dihydro-1H-pyrazolo[4,3-c]pyridin-3-yl}amino)-N,N-dimethylbenzenesulfonamide]	0.29 nM	0.52 nM
CC(C)(C)OC(=O)[C@@H]1CC[C@@](CC#N)(n2nc(Nc3ccc(S(=O)(=O)C4CC4)cc3)c3c(=O)[nH]ccc32)CO1 [Example 5-99, (2S,5S)-tert-butyl 5-(cyanomethyl)-5-(3-((4-(cyclopropylsulfonyl)phenyl)amino)-4-oxo-4,5-dihydro-1H-pyrazolo [4,3-c]pyridin-1-yl) tetrahydro-2H-pyran-2-carboxylate]	0.05 nM	0.14 nM
CC(C)(C)OC(=O)[C@@H]1CC[C@](CC#N)(n2nc(Nc3ccc(S(C)(=O)=O)cc3)c3c(=O)[nH]ccc32)CO1 (single isomer, unassigned) [Example 5-37, (2R,5S or 2S,5R)-tert-butyl 5-(cyanomethyl)-5-(3-((4-(methylsulfonyl)phenyl)amino)-4-oxo-4,5-dihydro-1H-pyrazolo[4,3-c]pyridin-1-yl)tetrahydro-2H-pyran-2-carboxylate]	1.93 nM	17.1 nM
CC(C)(C)OC(=O)N1CCC(CC#N)(n2nc(Nc3ccc4c(c3)CCS4(=O)=O)c3c(=O)[nH]ccc32)CC1 [Example 5-82, tert-butyl 4-(cyanomethyl)-4-(3-((1,1-dioxido-2,3-dihydrobenzo[d]thiophen-5-yl)amino)-4-oxo-4,5-dihydro-1H-pyrazolo[4,3-c]pyridin-1-yl)piperidine-1-carboxylate]	0.1 nM	0.31 nM
CN(C(C)(C)C)S(=O)(=O)c1ccc(Nc2nn(C3(CC#N)CCCC3)c3cc[nH]c(=O)c23)cc1 [Example 5-134, N-(tert-butyl)-4-((1-(1-(cyanomethyl)cyclopentyl)-4-oxo-4,5-dihydro-1H-pyrazolo[4,3-c]pyridin-3-yl)amino)-N-methylbenzene sulfonamide]	0.7 nM	1.07 nM
CC(C)c1ccc(CN2CCC(CC#N)(n3nc(Nc4ccc(S(=O)(=O)N(C)C)cc4)c4c(=O)[nH]ccc43)CC2)cc1 [Example 8-4, 4-[(1-{4-(cyanomethyl)-1[4-(1-methylethyl)benzyl]piperidin-4-yl}-4-oxo-4,5-dihydro-1H-pyrazolo[4,3-c]pyridin-3-yl)amino]-N,N-dimethylbenzenesulfonamide]	6.9 nM	33.1 nM
CC(C)(C)OC(=O)N1CCC(CC#N)(n2nc(Nc3ccc(C4(C(F)(F)F)CCN(Cc5ccccc5)C4)cc3)c3c(=O)[nH]ccc32)CC1 (single isomer, unassigned) [Example 5-281, (S or R) tert-butyl 4-(3-((4-(1-benzyl-3-(trifluoromethyl)pyrrolidin-3-yl)phenyl)amino)-4-oxo-4,5-dihydro-1H-pyrazolo[4,3-c]pyridin-1-yl)-4-(cyanomethyl)piperidine-1-carboxylate]	7.9 nM	10 nM
CC(O)(c1ccc(Nc2nn([C@@]3(CC#N)CCCC[C@H]3F)c3cc[nH]c(=O)c23)cc1)C(F)(F)F (single isomer, unassigned) [Example 5-85, {(1R,2R)-2-fluoro-1-[4-oxo-3-({4-[(1S or 1R)-2,2,2-trifluoro-1-hydroxy-1-methylethyl]phenyl}amino)-4,5-dihydro-1H-pyrazolo[4,3-c]pyridin-1-yl]cyclohexyl}acetonitrile]	0.07 nM	0.17 nM
COC(=O)N1CCC(CC#N)(n2nc(Nc3ccc4c(c3)CN(CC3CC3)S4(=O)=O)c3c(=O)[nH]ccc32)CC1 [Example 5-74, methyl 4-(cyanomethyl)-4-(3-{[2-(cyclopropylmethyl)-1,1-dioxo-2,3-dihydro-1,2-benzothiazol-5-yl]amino}-4-oxo-1H,4H,5H-pyrazolo [4,3-c]pyridin-1-yl) piperidine-1-carboxylate]	0.06 nM	0.27 nM
CC(F)(F)C(=O)N1CCC(CC#N)(n2nc(Nc3ccc4c(c3)CN(C(C)(C)C)S4(=O)=O)c3c(=O)[nH]ccc32)CC1 [Example 5-26, 2-(4-(3-((2-(tert-butyl)-1,1-dioxido-2,3-dihydrobenzo [d]isothiazol-5-yl)amino)-4-oxo-4,5-dihydro-1H-pyrazolo[4,3-c]pyridin-1-yl)-1-(2,2-difluoro-propanoyl)piperidin-4-yl) acetonitrile]	0.09 nM	0.1 nM
CC(C)(C)OC(=O)[C@@H]1CC[C@@](CC#N)(n2nc(Nc3ccc4c(c3)CC(C)(C)C4(O)C(F)(F)F)c3c(=O)[nH]ccc32)CO1 (single isomer, unassigned) [Example 5-165, (2S,5S)-tert-butyl 5-(cyanomethyl)-5-(3-(((S or R)-1-hydroxy-2,2-dimethyl-1-(trifluoromethyl)-2,3-dihydro-1H-inden-5-yl)amino)-4-oxo-4,5-dihydro-1H-pyrazolo[4,3-c]pyridin-1-yl)tetrahydro-2H-pyran-2-carboxylate]	0.46 nM	1 nM
N#CC[C@]1(n2nc(Nc3ccc([C@]4(C(F)(F)F)CCCCN4)cc3)c3c(=O)[nH]ccc32)CCOC[C@H]1F (single isomer, unassigned) [Example 5-263, 2-((3S,4S or 3R,4R)-3-fluoro-4-(4-oxo-3-((4-((S or R)-2-(trifluoromethyl)piperidin-2-yl)phenyl)amino)-4,5-dihydro-1H-pyrazolo[4,3-c]pyridin-1-yl)tetrahydro-2H-pyran-4-yl)acetonitrile]	0.48 nM	0.77 nM
CC(C)(C)OC(=O)[C@@H]1CC[C@@](CC#N)(n2nc(Nc3ccc(C(C)(O)C(F)(F)F)cc3)c3c(=O)[nH]ccc32)CO1 (single isomer, unassigned) [Example 5-170, (2S,5S)-tert-butyl 5-(cyanomethyl)-5-(4-oxo-3-((4-((S or R)-1,1,1-trifluoro-2-hydroxypropan-2-yl)phenyl)amino)-4,5-dihydro-1H-pyrazolo[4,3-c]pyridin-1-yl)tetrahydro-2H-pyran-2-carboxylate]	0.14 nM	0.48 nM
N#CC[C@@]1(n2nc(Nc3ccc4c(c3)CN(C3CCN(CC(F)(F)F)CC3)S4(=O)=O)c3c(=O)[nH]ccc32)CCOC[C@@H]1F (single isomer, unassigned) [Example 5-277, 2-((3R,4R or 3S,4S)-4-(3-((1,1-dioxido-2-(1-(2,2,2-trifluoroethyl)piperidin-4-yl)-2,3-dihydrobenzo[d]isothiazol-5-yl)amino)-4-oxo-4,5-dihydro-1H-pyrazolo[4,3-c]pyridin-1-yl)-3-fluorotetrahydro-2H-pyran-4-yl)acetonitrile]	0.05 nM	0.05 nM
Cc1cc(Nc2nn([C@]3(CC#N)CC[C@@H](C(=O)OC(C)(C)C)OC3)c3cc[nH]c(=O)c23)ccc1C(=O)N1CCOC(C)(C)C1 [Example 5-220, (2S,5S)-tert-butyl 5-(cyanomethyl)-5-(3-((4-(2,2-dimethylmorpholine-4-carbonyl)-3-methylphenyl)amino)-4-oxo-4,5-dihydro-1H-pyrazolo[4,3-c]pyridin-1-yl)tetrahydro-2H-pyran-2-carboxylate]	0.14 nM	0.19 nM

Other lines, results leading:

IC50 [1]	IC50 [2]	SMILES
74 nM	1020 nM	N#CC[C@]1(n2nc(Nc3ccc(Cl)cc3)c3c(=O)[nH]ccc32)CC[C@@H](NCC(F)(F)F)CC1 [Example 18-10, Cis 2-(1-(3-((4-chlorophenyl)amino)-4-oxo-4,5-dihydro-1H-pyrazolo[4,3-c]pyridin-1-yl)-4-((2,2,2-trifluoroethyl)amino)cyclohexyl)acetonitrile]
1.11 nM	1.96 nM	CO[C@H](c1ccc(Nc2nn(C3(CC#N)CCN(C(=O)OC(C)(C)C)CC3)c3cc[nH]c(=O)c23)cc1)C(F)(F)F (single isomer, unassigned) [Example 21-9, tert-butyl 4-(cyanomethyl)-4-[4-oxo-3-({4-[(1R or 1S)-2,2,2-trifluoro-1-methoxyethyl]phenyl}amino)-4,5-dihydro-1H-pyrazolo[4,3-c]pyridin-1-yl]piperidine-1-carboxylate]
0.06 nM	0.12 nM	CN(C)S(=O)(=O)c1ccc(Nc2nn(C3(CC#N)CCN(S(=O)(=O)C4CC4)CC3)c3cc[nH]c(=O)c23)cc1 [Example 14-2, 4-((1-(4-(cyanomethyl)-1-(cyclopropylsulfonyl)piperidin-4-yl)-4-oxo-4,5-dihydro-1H-pyrazolo[4,3-c]pyridin-3-yl)amino)-N,N-dimethylbenzenesulfonamide]
41.1 nM	1290 nM	N#CC[C@]1(n2nc(Nc3ccc(C(F)(F)F)cc3)c3c(=O)[nH]ccc32)CC[C@@H](Nc2ccccc2)CC1 [Example 18-3, Cis 2-(1-(4-oxo-3-((4-(trifluoromethyl)phenyl)amino)-4,5-dihydro-1H-pyrazolo[4,3-c]pyridin-1-yl)-4-(phenylamino)cyclohexyl)acetonitrile]
3.96 nM	38.8 nM	CN(C)S(=O)(=O)c1ccc(Nc2nn(C3(CC#N)CCN(C(=O)C45CC6C[C@H](C4)C[C@@H](C6)C5)CC3)c3cc[nH]c(=O)c23)cc1 [Example 9-9, 4-[(1-{4-(cyanomethyl)-1-[(3S,5S,7S)-tricyclo[3.3.1.1^3,7]dec-1-ylcarbonyl]piperidin-4-yl}-4-oxo-4,5-dihydro-1H-pyrazolo[4,3-c]pyridin-3-yl)amino]-N,N-dimethylbenzenesulfonamide]
0.22 nM	2.2 nM	N#CC[C@]1(n2nc(Nc3ccc(Cl)cc3)c3c(=O)[nH]ccc32)CC[C@H](NCC(F)(F)F)CC1 [Example 18-11, Trans 2-(1-(3-((4-chlorophenyl)amino)-4-oxo-4,5-dihydro-1H-pyrazolo[4,3-c]pyridin-1-yl)-4-((2,2,2-trifluoroethyl)amino)cyclohexyl)acetonitrile]
